Experimental data taken from PubChem BioAssay AID1996.
≈ marks a conversion by molar mass, not a printed value. Residues, ends and D or L forms follow the SMILES beside them. *: point of attachment. Piperidide = C1CCN(*)CC1; PhAc = O=C(Cc1ccccc1)*

Details: buffer; pH 7.4; 200.0 µM

solubility kinetic | SMILES
> 47 µg/mL | Cc1cc(NC(=O)C2CC(=O)N(c3cccc(C)c3C)C2)no1 (configuration not stated)
4.3 µg/mL (≈ 11.3 µM) | O=C(COC(=O)/C=C/c1ccc(C(F)(F)F)cc1)NCCC1=CCCCC1
5.8 µg/mL (≈ 15.4 µM) | O=C(NCc1ccccc1F)c1cccc(S(=O)(=O)N2CCCCC2)c1
> 41 µg/mL | CSc1ccc(NC(=O)NCc2cccnc2)cc1
> 53.7 µg/mL | Cc1nonc1OC(C)CNCCNc1ccc([N+](=O)[O-])cc1.Cl (configuration not stated)
> 52.9 µg/mL | CC(=O)C1=C(O)C(=O)N(Cc2ccccc2)C1c1ccc([N+](=O)[O-])cc1 (configuration not stated)
> 46.4 µg/mL | Cc1cccnc1NC(=O)C(C)N1C(=O)c2ccccc2C1=O (configuration not stated)
> 50 µg/mL | COc1ccc(C)cc1NC(=O)CCCN1C(=O)NC(C)(C)C1=O
11.4 µg/mL (≈ 32.4 µM) | Cc1ccc(CNC(=O)C2CCCN2C(=O)Nc2ccc(C)cc2)cc1 (configuration not stated)
< 0.3 µg/mL | CCN(CC)CCN(C(=O)/C=C/c1cccs1)c1nc2ccc(Cl)cc2s1.Cl
> 46.9 µg/mL | COc1ccccc1NC(=O)C1CCCN(c2cnccn2)C1 (configuration not stated)
25 µg/mL (≈ 101 µM) | O=C(O)CN1C(=O)CC(c2ccccc2)CC1=O
> 48.4 µg/mL | CCC(C)N1C(=O)CCC1C(=O)NCCc1ccc(Cl)cc1 (configuration not stated)
4.1 µg/mL (≈ 11.9 µM) | Cc1onc(-c2ccccc2)c1CNC(=O)Nc1ccc(F)cc1F
> 49.9 µg/mL | CCc1ccc(C(=O)NC(C(=O)NCC2CCCO2)C(C)C)cc1 (configuration not stated)
27.3 µg/mL (≈ 126 µM) | CC(=O)c1c(O)c2ccccc2n(C)c1=O
13.6 µg/mL (≈ 37.5 µM) | Cc1ccc(C(=O)C2CCN(S(=O)(=O)c3c(C)noc3C)CC2)cc1
> 56.5 µg/mL | CCCc1nnc(NC(=O)C2CC(=O)N(CCc3ccc(F)cc3)C2)s1 (configuration not stated)
43.8 µg/mL (≈ 149 µM) | O=C(O)CCC(=O)Nc1ccc(OCC2CCCO2)cc1 (configuration not stated)
2.3 µg/mL (≈ 7.07 µM) | CC1(C)C(=O)Nc2ccccc2N1C(=O)c1ccc([N+](=O)[O-])cc1
> 64.3 µg/mL | CCOc1ccccc1Nc1nnc(SCC(=O)NC2CCS(=O)(=O)C2)s1 (configuration not stated)
45.3 µg/mL (≈ 136 µM) | Cc1ccc(Cn2ccsc2=NC(=O)COC(=O)C(C)C)cc1
> 41.6 µg/mL | CN(C)c1ccncc1C(=O)Nc1ccc(F)cc1F
> 44.6 µg/mL | O=C1Nc2ccc([N+](=O)[O-])cc2C1=Nc1cccc(CO)c1
13.2 µg/mL (≈ 38.1 µM) | CC(C)(CNC(=O)c1cccc(F)c1)CNC(=O)c1cccc(F)c1

Second part, the compound before the results:

SMILES | solubility kinetic
O=C(CSc1nc2ncc(Cl)cc2[nH]1)N1CCC(Cc2ccccc2)CC1 | 1 µg/mL (≈ 2.49 µM)
COC(=O)c1c(NC(=O)C(C)C)sc(C(=O)N2CCOCC2)c1C | > 53.2 µg/mL
CC(=O)Nc1ccc(NC(=O)c2cccc(Oc3ccccc3)c2)cc1 | < 0.4 µg/mL
Cn1c(=O)c2c(nc(Oc3ccccc3N)n2C)n(C)c1=O | > 45.2 µg/mL
CCn1c(/C=C/c2ccc(O)cc2)nc2ccccc2c1=O | 2.8 µg/mL (≈ 9.58 µM)
CC(=O)c1cccc(NC(=O)CNC(=O)Cc2cccc3ccccc23)c1 | 8.4 µg/mL (≈ 23.3 µM)
CCn1c(O)c(C=NCc2ccccc2)sc1=S | < 0.3 µg/mL
CC(=O)NC(C(=O)c1ccccc1)N1CCCCC1 (configuration not stated) | 29.1 µg/mL (≈ 112 µM)
Cc1cc(C)cc(N2C(=O)CC(Sc3ccccc3C(=O)O)C2=O)c1 (configuration not stated) | 52.4 µg/mL (≈ 147 µM)
CC(=O)Nc1ccc(S(=O)(=O)NCCC(=O)Nc2ncccc2C)cc1 | > 56.5 µg/mL
CC(C)CC1NC(=O)N(CC(=O)Nc2cc(S(=O)(=O)N3CCOCC3)ccc2Cl)C1=O (configuration not stated) | 8.2 µg/mL (≈ 17.3 µM)
Cc1cc(NS(=O)(=O)c2ccc3c(c2)OCCO3)no1 | 31.2 µg/mL (≈ 105 µM)
O=C(Nc1ccc([N+](=O)[O-])c(NC(=O)c2cccnc2)c1)c1cccnc1 | 3.3 µg/mL (≈ 9.08 µM)
Cc1c(C(=O)Nc2ccccc2)cc(-c2ccccc2)n1CCCN1CCOCC1 | 36.8 µg/mL (≈ 91.2 µM)
CC(C)CCN1CCN(Cc2cccs2)CC1CCO (configuration not stated) | 39.8 µg/mL (≈ 134 µM)
CN(C)c1cccc(C(=O)NC2CCCc3ccccc32)c1 (configuration not stated) | 11.6 µg/mL (≈ 39.4 µM)
O=C(CN1C(=O)CCC1=O)NC(=O)NC1CCCC1 | > 40.1 µg/mL
Cl.Clc1ccc(Cn2c(CN3CCCC3)nc3ccccc32)cc1 | 49.5 µg/mL
S=C(Nc1ccccc1)N1CCC(Cc2ccccc2)CC1 | 14.5 µg/mL (≈ 46.7 µM)

SMILES | solubility kinetic
O=C(C#Cc1ccccc1)Nc1ccccc1F | 25.4 µg/mL (≈ 106 µM)
Cn1cnc(S(=O)(=O)Nc2ccc(OC(F)(F)F)cc2)c1 | 39.7 µg/mL (≈ 124 µM)
O=C(CNC(=O)Cc1ccccc1)NCC(=O)N1CCCCC1 (PhAc-Gly-Gly-Piperidide) | > 47.6 µg/mL
Cc1ccc(S(=O)(=O)N2CCOCC2)cc1C(=O)c1nccn1C | > 52.4 µg/mL
Cc1cnc(=O)[nH]c1SCc1ccccc1F | > 37.5 µg/mL
CC1CN(C(=O)c2cc([N+](=O)[O-])cc([N+](=O)[O-])c2)CC(C)O1 (configuration not stated) | > 46.4 µg/mL
CN(C)CCCNC(=O)c1ccccc1Oc1ccccc1 | > 44.8 µg/mL
COc1ccccc1C1CCN(c2ccc([N+](=O)[O-])c(OC)c2)CC1 | < 0.4 µg/mL
COc1cc(C2NC(=S)NC(c3ccccc3)=C2C(C)=O)ccc1O (configuration not stated) | 43.8 µg/mL (≈ 124 µM)
COc1ccc(S(=O)(=O)N2CCNC(=O)CC2)cc1 | 35.1 µg/mL (≈ 123 µM)
Cc1cccc(NC(=O)CCC(=O)N2CCOCC2)n1 | > 41.6 µg/mL
S=C(NCCCc1ccccc1)Nc1ccc(Br)cc1 | 4.5 µg/mL (≈ 12.9 µM)
Nc1nc(Nc2ccccc2F)nc(NCc2ccccc2)c1[N+](=O)[O-] | < 0.1 µg/mL
Cc1ccc(C(=O)NCC(=O)Nc2cc(C)ccn2)cc1 | > 42.5 µg/mL
O=[N+]([O-])c1ncc(Br)cc1Nc1ccccc1 | 16.3 µg/mL (≈ 55.4 µM)
COc1ccc(CNC(=S)Nc2ccccc2)cc1Cl | 31.7 µg/mL (≈ 103 µM)
COc1ccc(C(=O)C[n+]2ccc(N(C)C)cc2)cc1.[Cl-] | > 46 µg/mL
Cn1c(=O)c(=O)n(C)c2cc([N+](=O)[O-])c([N+](=O)[O-])cc21 | > 42 µg/mL
O=C(CS(=O)(=O)c1ccccc1)NCc1ccco1 | 40.7 µg/mL (≈ 146 µM)

SMILES | solubility kinetic
O=[N+]([O-])c1c(NCCO)cc(N2CCC3(CC2)OCCO3)c2nonc12 | > 54.8 µg/mL
CCN(c1ccccc1)c1cc2ccccc2c(=O)[nH]1 | 23.9 µg/mL (≈ 90.4 µM)
CC(C)C(=O)Nc1ccc(NC(=O)c2ccc3c(c2)OCO3)cc1 | < 0.3 µg/mL
CCOc1cc(C(=O)OCC(=O)Nc2cccc(S(=O)(=O)NC3=NCCCCC3)c2)cc(OCC)c1OCC | 24.2 µg/mL (≈ 43.1 µM)
COc1cc([N+](=O)[O-])ccc1NC(=O)N1CCCCCC1 | 32.1 µg/mL (≈ 109 µM)
Oc1ccc(/C=N/NC(=S)N2CCOCC2)cc1 | > 39.8 µg/mL
CN(C)c1ccc(/C=C/c2cccc[n+]2[O-])cc1 | > 36 µg/mL
CCCCn1c(N)c(C(=O)NCc2cccs2)c2nc3ccccc3nc21 | 1.6 µg/mL (≈ 4.22 µM)
O=C(Nc1cc(=O)[nH]c(=O)[nH]1)c1cccc(C(F)(F)F)c1 | > 44.9 µg/mL
CC(=O)c1ccc(N2CCN(CC3CCCCC3)CC2)cc1 | 22 µg/mL (≈ 73.2 µM)
COC1(NC(=O)c2ccccc2)C(C)=CC(=O)C=C1C | 40 µg/mL (≈ 147 µM)
Cc1onc(-c2ccccc2Cl)c1C(=O)N1CCCCC1C (configuration not stated) | 45.8 µg/mL (≈ 144 µM)
Cc1ccc([N+](=O)[O-])cc1NC(=O)C[n+]1ccccc1.[Cl-] | > 46.2 µg/mL
CCNC(=S)NNC(=O)c1nn(C)c(C)c1Cl | > 41.4 µg/mL
C=CCNC(=O)N1CCCC(N2CCN(c3ccccc3OC)CC2)C1 (configuration not stated) | > 53.8 µg/mL
COc1ccc(-c2ccnc(-c3ccncc3)n2)cc1 | > 39.5 µg/mL
Cc1[nH]c2ccccc2c1-c1csc(N)n1 | 28.1 µg/mL (≈ 123 µM)
COc1ccc(C(=O)OCC(=O)N2CCc3ccccc3C2)cc1OC | > 53.3 µg/mL
COc1cccc(/C=C/C(=O)c2cccc([N+](=O)[O-])c2)c1 | 2.4 µg/mL (≈ 8.47 µM)
